Values after ≈ are worked out from the molar mass of the structure shown.

The conditions of the data set: buffer; pH 7.4; 200.0 µM.
For the compound `N#C/C(=C/c1cccc([N+](=O)[O-])c1)C(=O)Nc1ccccc1O`, the solubility (kinetic) turned out to be 10.7 µg/mL (≈ 34.6 µM).
Compound `OC(c1ccccc1)(c1ccc(Cl)cc1)C1CN2CCC1CC2` (stereo not given) showed a solubility (kinetic) of more than 49.2 µg/mL.
For `CCC(=O)c1ccc(OC(=O)c2cnccn2)cc1`, the solubility (kinetic) is more than 38.4 µg/mL.
Regarding `CN(C)c1ccc(NC(=O)c2ccc(N3CCOCC3)nc2)cc1`, the solubility (kinetic) was 20.4 µg/mL (≈ 62.5 µM).
For `COc1ccccc1OCC(=O)NCCCN1CCOCC1`, the solubility (kinetic) came to 36.1 µg/mL (≈ 117 µM).
For `COc1ccccc1N1CCN(C(=O)/C=C/c2cccc([N+](=O)[O-])c2)CC1` the value was 3.6 µg/mL (≈ 9.8 µM).
`CCn1cc(C(C)NC(=O)Nc2ccc3c(c2)OCO3)c(C)n1` (stereo not given) registered a kinetic solubility of more than 47.5 µg/mL.
As to `CCN1CCCC1CNC(=S)Nc1ccc(C(C)=O)cc1` (stereo not given), the kinetic solubility is more than 45.8 µg/mL.
The compound `Clc1cccc(C2Nc3cccc4cccc(c34)N2)c1Cl` had a kinetic solubility of 0.5 µg/mL (≈ 1.59 µM).
The compound `O=S(=O)(c1ccccc1F)N1CCCc2ccccc21` returned a solubility (kinetic) of 11.2 µg/mL (≈ 38.4 µM).
Take `O=C(c1cccc(F)c1)N1CCC2(CC1)NCCc1[nH]cnc12`: the kinetic solubility was more than 47.2 µg/mL.
The figure for `CC(C)(CNC(=O)c1ccc(Br)o1)N1CCOCC1` is 42.8 µg/mL (≈ 129 µM); for `CS(=O)(=O)N(CC(=O)N1CCOCC1)c1ccccc1Br` it is more than 56.6 µg/mL; for `O=C(OCC(=O)N1CCc2ccccc21)c1nc(Cl)ccc1Cl` it is 23.3 µg/mL (≈ 66.3 µM).
Compound `OCc1c[nH]c(=S)n1CCOc1cccc(C(F)(F)F)c1` came in with a solubility (kinetic) of 5.5 µg/mL (≈ 17.3 µM).
Turning to `COc1ccc(CCNC(=O)c2cccnc2SC)cc1`, the kinetic solubility came to 16 µg/mL (≈ 52.9 µM).
Compound `CC(C)(C)NC(=O)[C@H]1CC[C@H]2[C@@H]3CC[C@H]4NC(=O)C=C[C@]4(C)[C@H]3CC[C@]12C` gave a kinetic solubility of 52.8 µg/mL (≈ 142 µM).
`CCOc1ccc(NC2=NCCCS2)cc1` returned a solubility (kinetic) of more than 35.4 µg/mL.
`COc1ccc(NC(C)=O)cc1S(=O)(=O)Nc1ccc(S(=O)(=O)N2CCCCC2)cc1` had a kinetic solubility of more than 70.1 µg/mL.
Turning to `CCc1noc(C)c1C(=O)NCCc1c[nH]c2ccccc12`, the solubility (kinetic) is more than 44.6 µg/mL.
For `CC1=C(Cl)C2=NS(=O)(=O)CCN2C=C1Cl` the value was more than 40.1 µg/mL; for `CCn1c(Oc2ccccc2F)nc2c1c(=O)n(C)c(=O)n2C`, more than 47.7 µg/mL.
`CCNc1c(NC(=O)c2cccs2)c(=O)oc2ccccc12` gave a kinetic solubility of 4.5 µg/mL (≈ 14.3 µM).
As to `COc1cc2c(C(=O)O)c(C)n(C)c2cc1Br`, the solubility (kinetic) was more than 44.7 µg/mL.
Regarding `COc1ccccc1C(=O)NCCCNC(=O)c1ccccn1`, the kinetic solubility is more than 47 µg/mL.
`Cn1cc(S(=O)(=O)N2CCNCC2)cc1C(N)=O` returned a kinetic solubility of more than 40.8 µg/mL.
The figure for `N/C(COc1cccc(Cl)c1)=N\O` is 20.1 µg/mL (≈ 100 µM).
Turning to `CC(C)CNC(=O)N1c2ccccc2Sc2ccccc21`, the kinetic solubility was determined as 7.1 µg/mL (≈ 23.8 µM).
As to `Cn1c(CO)cnc1SCC(=O)c1ccc(F)cc1`, the kinetic solubility is more than 42 µg/mL.
`CCC1CCCCN1C(=O)CNCC1CCCO1.Cl` (stereo not given) yielded a kinetic solubility of 27.4 µg/mL.
Compound `O=c1[nH]c2ccccc2c(O)c1-c1ccccc1` showed a solubility (kinetic) of 17.2 µg/mL (≈ 72.5 µM).
Regarding `O=C(Cc1csc(-c2ccccc2)n1)NCc1ccco1`, the solubility (kinetic) stood at 39.1 µg/mL (≈ 131 µM).
`CSc1ccc(CNC(C)(C)CO)cc1.Cl` gave a kinetic solubility of more than 39.3 µg/mL.
The compound `CCCOc1ccc(/C=C2/C(=O)ON=C2C)cc1Cl` had a kinetic solubility of 27.9 µg/mL (≈ 99.7 µM).
`NC(=O)c1cc([N+](=O)[O-])ccc1N1CCN(Cc2ccccc2)CC1` registered a solubility (kinetic) of 23 µg/mL (≈ 67.6 µM).
For the compound `O=C(c1ccccc1)C1CCN(C(=O)Nc2ccccc2)CC1`, the kinetic solubility is 41.2 µg/mL (≈ 134 µM).
`CC(C)c1ccc(NC(=O)CN2C(=O)NC3(CCCC3)C2=O)cc1` registered a kinetic solubility of more than 49.4 µg/mL.
With `Cc1ccc(OC(C)C(=O)N(C)Cc2ccccc2)c([N+](=O)[O-])n1` (stereo not given), the kinetic solubility amounted to 46.9 µg/mL (≈ 142 µM).
The figure for `C=CCn1c(O)c(C=NCCCn2ccnc2)c(=O)[nH]c1=O` is more than 45.5 µg/mL; for `O=C(CSc1ncccn1)Nc1ccc2c(c1)CCC2` it is 37.9 µg/mL (≈ 133 µM); for `COc1ccccc1OCCn1cc(C(=O)C(C)C)c2ccccc21` it is less than 0.7 µg/mL.
For `Cc1ccc(-c2c(C#N)c(N)nc3c2CCCC3)o1` the value was 4.1 µg/mL (≈ 16.2 µM); for `CC1(C)CC(=O)C(N=Nc2cccnc2)=C(O)C1`, more than 36.8 µg/mL.
As for `Cc1nc(COc2cccc(Cl)c2)sc1C(=O)/C=C/N(C)C`, the solubility (kinetic) is more than 50.5 µg/mL.
For `O=C(CCc1ccccc1)N1CCCC(Nc2ccc(F)cc2)C1` (stereo not given) the value was 41.4 µg/mL (≈ 127 µM).
Consider `Cc1cc(OCC(=O)N(C)C2CCCCC2)cc(C)c1Cl`, for which the kinetic solubility was found to be 15.4 µg/mL (≈ 49.7 µM).
The compound `C[C@@H](C(=O)Nc1ccc(SC(F)F)cc1)N1C(=O)C2CCCCC2C1=O` (stereo not given in full) returned a kinetic solubility of 52.5 µg/mL (≈ 137 µM).
Take `O=C(Nc1ccc2c(c1)OCO2)C1CCCCC1`: the kinetic solubility was more than 37.1 µg/mL.
`CN(C)c1nc(=S)nc(NCc2ccccc2)[nH]1` had a solubility (kinetic) of more than 39.2 µg/mL.
As for `CCCC(=O)Nc1c(-c2cccc(OC)c2)c(=O)c2ccccc2n1C`, the kinetic solubility is more than 52.6 µg/mL.
`CCC(C(=O)N1CCN(c2ncccn2)CC1)c1ccccc1` (stereo not given) registered a solubility (kinetic) of 41.7 µg/mL (≈ 134 µM).
As to `CN1CCc2c(sc(/N=C/c3c[nH]c4ccccc34)c2C(N)=O)C1`, the kinetic solubility came out at 10.2 µg/mL (≈ 30.1 µM).
The compound `O=C(Nc1ccccc1)c1ccc(=O)n(Cc2cccc(Cl)c2)c1` yielded a kinetic solubility of 22.1 µg/mL (≈ 65.2 µM).
In the case of `O=C(COC(=O)c1ccc(Br)o1)Nc1cccc(S(=O)(=O)N2CCCCC2)c1`, the solubility (kinetic) worked out at 9.3 µg/mL (≈ 19.7 µM).
The figure for `CCC(=O)N/C(N)=N/c1nc2ccccc2o1` is 14.8 µg/mL (≈ 63.7 µM); for `Cl.c1ccc(-c2ccc(OCCN3CCOCC3)cc2)cc1` it is 29.8 µg/mL.
For the compound `CSc1ccccc1NC(=O)Nc1cccc(Cl)c1C`, the solubility (kinetic) worked out at 0.5 µg/mL (≈ 1.63 µM).
In turn, `O=C1NCC(O)=C1C=Nc1ccccc1O` had a kinetic solubility of more than 32.7 µg/mL.
The compound `NC(=O)CC(c1ccccc1)c1ccc2c(c1)OCO2` (stereo not given) showed a solubility (kinetic) of 39.9 µg/mL (≈ 148 µM).
For `Cc1cc(C)c(NC(=O)C2CC(=O)N(C(C)C)C2)c(C)c1` (stereo not given) the value was more than 43.3 µg/mL.
Compound `Cc1ccccc1NC(=O)CN1C(=O)CSc2ccccc21` registered a solubility (kinetic) of 3.6 µg/mL (≈ 11.5 µM).
For `COc1ccc(NC(=O)C(C)SCc2ccccc2)cc1` (stereo not given), the kinetic solubility was 40.9 µg/mL (≈ 136 µM).
In the case of `O=C(CSc1nnc(-c2ccncc2)o1)Nc1nncs1`, the solubility (kinetic) is more than 48.1 µg/mL.
`O=C1NC(=O)N(c2ccc(F)cc2)C(=O)/C1=C/c1ccsc1` registered a kinetic solubility of more than 47.4 µg/mL.
Take `COc1cccc(CC(=O)Nc2nc3c(s2)C(=O)CC(C)(C)C3)c1`: the solubility (kinetic) was found to be 1.8 µg/mL (≈ 5.23 µM).
Consider `Cc1ccc(C(=O)NC(=S)N2CCCC2)cc1`, for which the solubility (kinetic) was more than 37.3 µg/mL.
With `CC1CCN(C(=O)c2ccc(N3CCOCC3)c([N+](=O)[O-])c2)CC1`, the solubility (kinetic) was more than 50 µg/mL.
The figure for `O=C(NCC(=O)N1CCN(c2ccccc2O)CC1)c1cccs1` is more than 51.8 µg/mL; for `CC(=O)c1cccc(-n2c(CCC(=O)O)ccc2-c2ccc(C)cc2)c1` it is more than 52.1 µg/mL; for `O=C(CSc1nc2ccc([N+](=O)[O-])cc2s1)NCC1CCCO1` (stereo not given) it is 50.6 µg/mL (≈ 143 µM).
In turn, `O=C(O)C1C2CCC(C2)C1C(=O)Nc1ccccc1` (stereo not given) yielded a solubility (kinetic) of 38.8 µg/mL (≈ 150 µM).
On to `Cc1ccc(C(=O)OCC(=O)NCCC2=CCCCC2)cc1N`, for which the solubility (kinetic) was determined as 21 µg/mL (≈ 66.4 µM).
The figure for `COc1ccc(C(=O)NC2=NCCS2)c(OC)c1` is more than 39.9 µg/mL; for `O=C(COC(=O)c1ccc(F)cc1F)Nc1ccc(Cl)cn1` it is 3.9 µg/mL (≈ 11.9 µM).
The compound `CCc1ccc2nc(NC(=O)CN3C(=O)NC4(CCCC4)C3=O)sc2c1` showed a solubility (kinetic) of 2.6 µg/mL (≈ 6.98 µM).
In turn, `Cc1cc(C)c(S(=O)(=O)NCCc2ccncc2)c(C)c1` showed a kinetic solubility of 19.7 µg/mL (≈ 64.7 µM).
`Cc1cnc(NC(=O)CC(C)c2ccccc2)s1` (stereo not given) registered a kinetic solubility of 3 µg/mL (≈ 11.5 µM).
On to `FC(F)(F)c1cccc(CNC2CCN(Cc3ccccc3)CC2)c1`, for which the solubility (kinetic) was found to be 38.6 µg/mL (≈ 111 µM).
`Nc1ccccc1C(=O)NCCCN1CCOCC1` returned a solubility (kinetic) of more than 39.5 µg/mL.
On to `COCCNC(=O)CN1C(=O)NC2(CCCCCC2)C1=O`, for which the solubility (kinetic) is more than 44.6 µg/mL.
`CCSc1nsc(NC(=O)Nc2cccc(OC)c2)n1` yielded a kinetic solubility of 1.7 µg/mL (≈ 5.48 µM).
Compound `CNC(=O)COc1ccc(S(=O)(=O)Nc2ccc(C)cc2)cc1` had a solubility (kinetic) of more than 50.2 µg/mL.
The figure for `Cn1c(SCc2ccc(F)cc2)nnc1-c1ccncc1` is more than 45.1 µg/mL.
`CC(C)OCCCNc1ncnc2c1nc1n2CCCC1` returned a kinetic solubility of more than 43.4 µg/mL.
The compound `COc1ccc(Cl)cc1C(=O)Nc1cccnc1Cl` showed a kinetic solubility of less than 0.3 µg/mL.
Compound `Cc1ccc(S(=O)(=O)N2CCOC2C(Cl)(Cl)Cl)cc1` (stereo not given) showed a kinetic solubility of 2.6 µg/mL (≈ 7.54 µM).
Compound `Nc1nonc1OCCCCOc1nonc1N` had a kinetic solubility of 21.1 µg/mL (≈ 82.4 µM).
Take `COc1cc(OC)c(NC(=O)c2csc(C)c2)cc1Cl`: the kinetic solubility is less than 0.7 µg/mL.
The compound `O=C(N/C=C\n1cnc2cc(C(F)(F)F)ccc21)c1ccc([N+](=O)[O-])cc1` gave a solubility (kinetic) of 2.8 µg/mL (≈ 7.44 µM).
The figure for `Cl.FC(F)(F)c1cccc(C2NCc3ccccc3-n3cccc32)c1` (stereo not given) is 3.9 µg/mL; for `CCOc1ccc(CNCCc2ccc3c(c2)OCO3)cc1` it is more than 44.9 µg/mL.
For `Clc1cccc(C2CCN(Cc3nc(CC4CC4)no3)C2)c1` (stereo not given) the value was 12.3 µg/mL (≈ 38.7 µM); for `COc1ccc(Oc2ccccc2C#N)cc1`, 9.9 µg/mL (≈ 44 µM).
The figure for `COC(=O)C(Cc1c[nH]c2ccccc12)NC(=O)C1CC1` (stereo not given) is more than 42.9 µg/mL; for `Clc1ccccc1CSc1nncn1-c1cccnc1` it is more than 45.4 µg/mL.
In turn, `Cc1ccc(S(=O)(=O)CC(=O)Nc2cccc(C)n2)cc1` yielded a kinetic solubility of 11.5 µg/mL (≈ 37.8 µM).
The figure for `Cc1ccc(C)c(-n2c(=O)c(C#N)cc3c(=O)n4ccccc4nc32)c1` is 6.2 µg/mL (≈ 18.1 µM).
The compound `CCCCNc1ncnc2sc3c(c12)CCN(CCC)C3` had a kinetic solubility of 44.9 µg/mL (≈ 147 µM).
In turn, `O=C(NCC1CCCO1)c1cc2cc(Cl)ccc2[nH]1` (stereo not given) came in with a solubility (kinetic) of 17 µg/mL (≈ 61 µM).
Consider `C=CCNC(=S)/N=c1/ccccn1Cc1ccccc1`, for which the solubility (kinetic) is 39.6 µg/mL (≈ 140 µM).
The compound `Cc1cc(=O)[nH]c(Nc2cccc(Cl)c2C)n1` displayed a kinetic solubility of more than 37.5 µg/mL.
For `O=C(CN1CCOCC1)Nc1nc(-c2ccccc2)cs1`, the solubility (kinetic) came out at 42.2 µg/mL (≈ 139 µM).
As for `COc1ccc(CCC(C)NCc2cc(OC)cc(OC)c2)cc1` (stereo not given), the solubility (kinetic) is 38.7 µg/mL (≈ 117 µM).
`C=CCNC(=S)N1CCC(C(N)=O)CC1` had a kinetic solubility of more than 34.1 µg/mL.
`CCn1c(=O)c2cc(C(=O)NCCC(C)C)sc2c2ccccc21` displayed a kinetic solubility of less than 0.4 µg/mL.

A word on the kinetic solubility: it is the concentration staying in solution when a stock, usually in DMSO, is diluted into the medium.

Values taken from PubChem BioAssay AID1996.
